Assay [1] concerns the target T1, adenosine A2A receptor (Rattus norvegicus, UniProt P30543).
T1 construct: from tissue; host or cells: rat corpus striatum, washed membrane suspension
Briefly: Adenosine receptor binding activity (adenosine A2A receptor binding test), 3H-CGS 21680 binding. Conditions: 2 h; 10^-7 M; read-out: A2A receptor inhibition ratio (%). The protocol: Adenosine receptor binding activity (adenosine A2A receptor binding test) This test was carried out by slightly modifying the method of Bruns et al. [Molecular Pharmacology, 29: 331 (1986)].
Corpus striatum of a rat was suspended in an ice-cooled 50 mM tris(hydroxymethyl)aminomethane hydrochloride (hereinafter referred to as "Tris-HCl") buffer (pH 7.7) using Polytron Homogenizer (manufactured by Kinematica Co.). The suspension was centrifuged (50,000×g, 10 minutes), and the obtained precipitate was re-suspended in the same amount of 50 mM Tris-HCl buffer. The suspension was centrifuged under the same conditions, and the final precipitate was suspended in 50 mM Tris-HCl [containing 10 mM magnesium chloride and 0.02 unit/mg tissue of adenosine deaminase (manufactured by Sigma Co.)] to give a tissue concentration of 5 mg (wet weight)/ml.
To 1 ml of the tissue suspension thus prepared were added 50 μl of tritium-labeled CGS 21680 {^3 H-2-[p-(2-carboxyethyl)phenethylamino]-5'-N-ethylcarboxamido)adenosine: 40 Ci/mmol; manufactured by New England Nuclear Co.[The Journal of Pharmacology and Experimental Therapeutics, 251: 888 (1989)]} (final concentration:4.0 nM) and 50 μl of a test compound. The resulting mixture was allowed to stand for 120 minutes at 25° C., and then rapidly filtered by suction through a glass fiber filter (GF/C, manufactured by Whatman Co.) The filter was immediately washed three times with […] of an ice-cooled 50 mM Tris-HCl buffer, and transferred to a vial, a scintillator (EX-H , manufactured by Wako Pure Chemical Industries, Ltd.) was added thereto, and the radioactivity on the filter was determined with a liquid scintillation counter (manufactured by Packard Instrument Co.) […]
The inhibition ratio of the test compound against the A2A receptor binding (^3 H-CGS 21680 binding) was calculated by the following equation:
Inhibition ratio (%)={1-(Amount of the binding in the presence of the test compound-Amount of the nonspecific binding)/(Amount of the total binding-Amount of the nonspecific binding)}×100
(Note) Amount of the total binding means the amount of radioactivity of ^3 H-CGS 21680 bound in the absence of the test compound. Amount of the nonspecific binding means the amount of radioactivity of ^3 H-CGS 21680 bound in the presence of 100 μM cyclopentyladenosine (CPA, manufactured by Sigma Co.) Amount of the binding in the presence of the test compound means the amount of radioactivity of ^3 H-CGS 21680 bound in the presence of the test compound at various levels of concentrations.

Assay [2] deals with CGS 21680-induced catalepsy in mice. The assay is described as follows: Activity on CGS 21680-induced Catalepsy. Type of assay: in vivo, mouse (male ddY). Conditions: 10 mg/kg oral; for Total score (catalepsy): 10 animals, maximum 50 points, control 48; for Number of Animals showing remission: catalepsy score 4 points or less in 10 cases; for inhibition in vivo at 10 mg/kg: Mus musculus, CGS 21680-induced catalepsy, read-out: Remission ratio (%). The method, then: Activity on CGS 21680-induced Catalepsy
Parkinson's disease is motor deficit based on the degeneration and cell death of the nigrostriatal dopaminergic neuron. […] [Journal of Neuroscience, 16: 605 (1996)]. Accordingly, it is considered that adenosine A2A receptor agonists positively regulate the output of the striopallidal GABAergic neurons and, as a result, catalepsy is induced by the administration of CGS 21680.
This test was carried out using 10 animals per group of male ddY mice of 5 week age (22 to 25 g in body weight, Japan SLC). CGS 21680 (manufactured by RBI) was dissolved in a physiological saline (manufactured by Otsuka Pharmaceutical), and 10 μg/20 μl of the solution was injected into mouse intracerebro-ventricle. Test compounds were used by suspending them in distilled water containing 0.3% of polyoxyethylene(20)sorbitan monooleate (hereinafter referred to as "Tween 80") (manufactured by Otsuka Pharmaceutical). […] One hour after the administration of the test compound, only forelimbs or only hindlimbs of each animal were laid on a vertically arranged stand made of acryl, having a size of 4.5 cm in height and 1.0 cm in width, to measure catalepsy symptoms. All of the compounds were administered orally in a dose of 10 mg/kg.
The effect was judged by total catalepsy scores of 10 animals in one group (the maximum is 50 points). When the total score was 40 points or less, the activity of drugs was judged positive. The number of animals showing remission of catalepsy was expressed by the number of cases in which the catalepsy score was 4 points or less in 10 cases. The catalepsy remission ratio was expressed as the percentage of the total score in the test compound-administered group to the total score in the control group.

Structures can show the parent of a compound that is named as a salt.

17 molecules from patent US6222035A, “[1,2,4] triazolo [1,5-C] pyrimidine derivatives” (Kyowa Hakko Kogyo Co., Ltd., priority 1997, dated 2001) can be followed below.

T1 sequence (P30543 whole entry): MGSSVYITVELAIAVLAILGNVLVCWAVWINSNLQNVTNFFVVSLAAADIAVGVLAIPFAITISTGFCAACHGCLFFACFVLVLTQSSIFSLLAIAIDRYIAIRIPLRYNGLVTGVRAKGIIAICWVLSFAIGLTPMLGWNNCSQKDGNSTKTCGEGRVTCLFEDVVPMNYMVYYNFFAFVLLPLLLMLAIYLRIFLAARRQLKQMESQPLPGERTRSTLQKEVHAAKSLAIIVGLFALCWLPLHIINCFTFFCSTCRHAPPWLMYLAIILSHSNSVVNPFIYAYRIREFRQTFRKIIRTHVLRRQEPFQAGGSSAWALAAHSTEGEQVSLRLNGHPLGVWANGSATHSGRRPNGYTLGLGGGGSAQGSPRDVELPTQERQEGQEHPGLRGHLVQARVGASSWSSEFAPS

Turning to `CCCN1CCN(c2cc3nc(-c4ccco4)nn3c(N)n2)CC1` [Compound 123, 5-Amino-2-(2-furyl)-7-(4-propylpiperazinyl)[1,2,4]triazolo[1,5-c]pyrimidine], the inhibition at 0.1 µM in assay [1] came to 42%. Further, in assay [2], the “Total score (catalepsy)” value came to 1, the “Number of Animals showing remission” value is recorded as 10 and the inhibition in vivo at 10 mg/kg was 96%.

Take `C[C@@H]1CN(c2cc3nc(-c4ccco4)nn3c(N)n2)C[C@H](C)N1C` [Compound 115, 5-Amino-7-(cis-3,5-dimethyl-4-methylpiperazinyl)-2-(2-furyl)[1,2,4]triazolo[1,5-c]pyrimidine hydrochloride]: the inhibition at 0.1 µM in assay [1] came out at 22%. Moreover, in assay [2], the “Total score (catalepsy)” value worked out at 5, the “Number of Animals showing remission” value turned out to be 10 and the inhibition in vivo at 10 mg/kg amounted to 88%.

On to `Nc1nc(N2CCN(CCOCc3ccccc3)CC2)cc2nc(-c3ccco3)nn12` [Compound 97, 5-Amino-7-(4-(2-benzyloxyethyl)piperazinyl)-2-(2-furyl)[1,2,4]triazolo[1,5-c]pyrimidine hydrochloride], for which, in assay [1], the inhibition at 0.1 µM was 79%. Besides, in assay [2], the “Total score (catalepsy)” value amounted to 4, the “Number of Animals showing remission” value is 10 and the inhibition in vivo at 10 mg/kg came out at 90%.

Take `Nc1nc(N2CCN(Cc3c(Cl)cccc3Cl)CC2)cc2nc(-c3ccco3)nn12` [Compound 80, 5-Amino-7-(4-(2,6-dichlorobenzyl)piperazinyl)-2-(2-furyl)[1,2,4]triazolo[1,5-c]pyrimidine hydrochloride]: in assay [1], the inhibition at 0.1 µM was determined as 93%. Also, in assay [2], the “Total score (catalepsy)” value is 3, the “Number of Animals showing remission” value came to 10 and the inhibition in vivo at 10 mg/kg amounted to 92%.

`Nc1nc(N2CCN(Cc3ccccc3F)CC2)cc2nc(-c3ccco3)nn12` [Compound 78, 5-Amino-7-(4-(2-fluorobenzyl)piperazinyl)-2-(2-furyl)[1,2,4]triazolo[1,5-c]pyrimidine]: the inhibition at 0.1 µM in assay [1] worked out at 85%. In assay [2], the “Total score (catalepsy)” value worked out at 6, the “Number of Animals showing remission” value was found to be 10 and the inhibition in vivo at 10 mg/kg was found to be 86%.

Take `C[C@@H]1CN(c2cc3nc(-c4ccco4)nn3c(N)n2)C[C@H](C)N1Cc1ccccc1` [Compound 116, 5-Amino-7-(4-benzyl-cis-3,5-dimethylpiperazinyl)-2-(2-furyl)[1,2,4]triazolo[1,5-c]pyrimidine]: in assay [1], the inhibition at 0.1 µM is 38%. Also, in assay [2], the “Total score (catalepsy)” value amounted to 5, the “Number of Animals showing remission” value was 10 and the inhibition in vivo at 10 mg/kg worked out at 90%.

With `Nc1nc(N2CCN(CCCc3cccnc3)CC2)cc2nc(-c3ccco3)nn12` [Compound 87, 5-Amino-2-(2-furyl)-7-(4-(3-(3-pyridyl)propyl)piperazinyl)[1,2,4]triazolo[1,5-c]pyrimidine hydrochloride], the inhibition at 0.1 µM in assay [1] was 77%. Moreover, in assay [2], the “Total score (catalepsy)” value amounted to 14, the “Number of Animals showing remission” value is on record as 9 and the inhibition in vivo at 10 mg/kg was found to be 68%.

As to `CCCCN1CCN(c2cc3nc(-c4ccco4)nn3c(N)n2)CC1` [Compound 135, 5-Amino-7-(4-butylpiperazinyl)-2-(2-furyl)[1,2,4]triazolo[1,5-c]pyrimidine], the inhibition at 0.1 µM in assay [1] was 49%. In assay [2], the “Total score (catalepsy)” value is 9, the “Number of Animals showing remission” value is recorded as 9 and the inhibition in vivo at 10 mg/kg worked out at 80%.

Take `COc1cc(CN2CCN(c3cc4nc(-c5ccco5)nn4c(N)n3)CC2)cc(OC)c1` [Compound 76, 5-Amino-7-(4-(3,5-dimethoxybenzyl)piperazinyl)-2-(2-furyl)[1,2,4]triazolo[1,5-c]pyrimidine]: the inhibition at 0.1 µM in assay [1] was 73%. Moreover, in assay [2], the “Total score (catalepsy)” value was 11, the “Number of Animals showing remission” value is 10 and the inhibition in vivo at 10 mg/kg was determined as 76%.

In the case of `COCCCN1CCN(c2cc3nc(-c4ccco4)nn3c(N)n2)CC1` [Compound 99, 5-Amino-2(2-furyl)-7-(4-(3-methoxypropyl)piperazinyl)[1,2,4]triazolo[1,5-c]pyrimidine], in assay [1], the inhibition at 0.1 µM is 59%. Moreover, in assay [2], the “Total score (catalepsy)” value was 5, the “Number of Animals showing remission” value was 10 and the inhibition in vivo at 10 mg/kg worked out at 90%.

Consider `Nc1nc(N2CCN(CCF)CC2)cc2nc(-c3ccco3)nn12` [Compound 126, 5-Amino-7-(4-(2-fluoroethyl)piperazinyl)-2-(2-furyl)[1,2,4]triazolo[1,5-c]pyrimidine], for which, in assay [1], the inhibition at 0.1 µM turned out to be 60%. Also, in assay [2], the “Total score (catalepsy)” value was 2, the “Number of Animals showing remission” value came to 9 and the inhibition in vivo at 10 mg/kg worked out at 96%.

On to `N#Cc1ccccc1CSc1cc2nc(-c3ccco3)nn2c(N)n1` [Compound 188, 5-Amino-7-(2-cyanobenzylthio)-2-(2-furyl)[1,2,4]triazolo[1,5-c]pyrimidine], for which the inhibition at 0.1 µM in assay [1] came out at 91%. Besides, in assay [2], the “Total score (catalepsy)” value was 15, the “Number of Animals showing remission” value is recorded as 2 and the inhibition in vivo at 10 mg/kg came out at 70%.

Turning to `CCC(=O)c1cnc(N)n2nc(-c3ccco3)nc12` [Compound 158, 5-Amino-2-(2-furyl)-8-propionyl[1,2,4]triazolo[1,5-c]pyrimidine], the inhibition at 0.1 µM in assay [1] stood at 92%. In assay [2], the “Total score (catalepsy)” value was 23, the “Number of Animals showing remission” value is on record as 8 and the inhibition in vivo at 10 mg/kg stood at 52%.

In the case of `CCOCCCN1CCN(c2cc3nc(-c4ccco4)nn3c(N)n2)CC1` [Compound 100, 5-Amino-7-(4-(3-ethoxypropyl)piperazinyl)-2-(2-furyl)[1,2,4]triazolo[1,5-c]pyrimidine], in assay [1], the inhibition at 0.1 µM stood at 54%. Further, in assay [2], the “Total score (catalepsy)” value was found to be 4, the “Number of Animals showing remission” value is on record as 10 and the inhibition in vivo at 10 mg/kg was found to be 90%.

Turning to `COc1ccc(CCCN2CCN(c3cc4nc(-c5ccco5)nn4c(N)n3)CC2)cc1OC` [Compound 86, 5-Amino-7-(4-(3-(3,4-dimethoxyphenyl)propyl)piperazinyl)-2-(2-furyl)[1,2,4]triazolo[1,5-c]pyrimidine], the inhibition at 0.1 µM in assay [1] came out at 83%. In addition, in assay [2], the “Total score (catalepsy)” value is reported as 13, the “Number of Animals showing remission” value turned out to be 9 and the inhibition in vivo at 10 mg/kg came out at 72%.

`Cc1nc(CN2CCN(c3cc4nc(-c5ccco5)nn4c(N)n3)CC2)cs1` [Compound 142, 5-Amino-2-(2-furyl)-7-(4-(2-methylthiazol-4-ylmethyl)piperazinyl)[1,2,4]triazolo[1,5-c]pyrimidine]: the inhibition at 0.1 µM in assay [1] came to 66%. In addition, in assay [2], the “Total score (catalepsy)” value came to 6, the “Number of Animals showing remission” value worked out at 10 and the inhibition in vivo at 10 mg/kg was 88%.

For `Nc1nc(N2CCN(CCOCCO)CC2)cc2nc(-c3ccco3)nn12` [Compound 103, 5-Amino-2-(2-furyl)-7-(4-(2-(2-hydroxyethoxy)ethyl)piperazinyl)[1,2,4]triazolo[1,5-c]pyrimidine], in assay [1], the inhibition at 0.1 µM is 53%. Also, in assay [2], the “Total score (catalepsy)” value is 2, the “Number of Animals showing remission” value is recorded as 10 and the inhibition in vivo at 10 mg/kg is 94%.
